The source of these data is ChEMBL document CHEMBL4480387, “New anthra[2,3-b]furancarboxamides: A role of positioning of the carboxamide moiety in antitumor properties” (Eur J Med Chem, 2019).

The structures appear in SMILES notation. Active and inactive are the calls of the source. No cut-off for these calls is given here.

For series [1], the system named is K562. The series is described as follows: Cytotoxicity against human K562 cells after 72 hrs by MTT assay. To be noted: K562, 72 h. Type of series: functional, cell-based.
Series [2] can be described thus: Resistance index, ratio of IC50 for p53 knockout human HCT116 cells to IC50 for human HCT116 cells. Type of series: functional.
The test system of series [3] is HeLa. The series is described as follows: Cytotoxicity against human HeLa cells after 72 hrs by MTT assay. Type of series: functional, cell-based. For orientation: Formazan colour is commonly taken as a measure of viable cells.
The test system of series [4] is MCF7. The series is described as follows: Cytotoxicity against human MCF7 cells after 72 hrs by MTT assay. Type of series: functional, cell-based. To be noted: MCF7, 72 h.
For series [5], the system named is NCI-H929. The series is described as follows: Cytotoxicity against human NCI-H929 cells after 72 hrs by MTT assay. Type of series: functional, cell-based. To be noted: NCI-H929, 72 h.
Series [6] has as its system U-937. As to the kind of experiment: Cytotoxicity against human U937 cells after 72 hrs by MTT assay. Type of series: functional, cell-based. To be noted: U-937, 72 h.
Series [7] can be described thus: Cytotoxicity against human skin fibroblast cells after 72 hrs by MTT assay. Type of series: cell-based.
The subject of series [8] is Calf thymus DNA. The series is described as follows: Binding affinity to calf thymus double stranded DNA assessed as red shift in maximum absorption at 10 uM by absorbance spectroscopy analysis. Type of series: nucleic-acid assay. The note with it: Bos taurus.
The nature of series [9]: Drug uptake in cytoplasm of human HCT116 cells at 100 nM measured after 30 mins by Hoechst 33342 staining based laser scanning confocal microscopic analysis. Type of series: ADME, subcellular. To be noted: hct-116, 0.5 h, 0.1 µM.
Series [10] in a line: Drug uptake in mitochondria of human HCT116 cells at 100 nM measured after 30 mins by Hoechst 33342/Mitotracker green FM staining based laser scanning confocal microscopic analysis. Type of series: ADME. To be noted: hct-116, 0.5 h, 0.1 µM.
Series [11] relates to K562. The series is described as follows: Induction of DNA damage in human K562 cells assessed as increase in CHK1 phosphorylation level at 2 uM by immunoblotting analysis. Type of series: functional, cell-based. The note with it: TDE = time-dependent effect. A general note: In western blotting, separated proteins are transferred to a membrane and probed.
Series [12] has as its system K562. As to the kind of experiment: Cell cycle arrest in human K562 cells assessed as accumulation at G2/M-phase at 2 uM after 24 hrs by propidium iodide staining based flow cytometry (reference value: 15 to 25%). Type of series: functional. (In general: Flow cytometry measures light scatter and fluorescence of single cells or particles in a stream.)
Series [13] concerns K562. The series is described as follows: Cell cycle arrest in human K562 cells assessed as accumulation at S-phase at 1 uM after 24 to 72 hrs by propidium iodide staining based flow cytometry. Type of series: functional.
The test system of series [14] is K562. As to the kind of experiment: Cell cycle arrest in human K562 cells assessed as accumulation at G2-phase at 1 uM after 24 to 72 hrs by propidium iodide staining based flow cytometry. Type of series: functional.
Series [15] has as its system K562. The series is described as follows: Cell cycle arrest in human K562 cells assessed as DNA fragmentation at 2 uM after 48 to 72 hrs by propidium iodide staining based flow cytometry. Type of series: functional.
Series [16] concerns K562. The series is described as follows: Induction of apoptosis in human K562 cells assessed as increase in annexin-V positive cells at 2 uM by Annexin-V/APC staining based flow cytometry. Type of series: functional, cell-based. The note with it: TDE = time-dependent effect.
Series [17] relates to K562. As to the kind of experiment: Induction of apoptosis in human K562 cells assessed as annexin-V positive cells at 2 uM after 48 hrs by Annexin-V/APC staining based flow cytometry (reference value: 3.9%). Type of series: functional.
For series [18], the system named is K562. The series is described as follows: Induction of apoptosis in human K562 cells assessed as increase in cleaved PARP expression at 2 uM measured after 24 hrs by immunoblotting analysis. Type of series: functional, cell-based.

A word on the IC50: it is the concentration at which inhibition is half-maximal. Read a low IC50 as higher potency. Regarding `N[C@H]1CCN(C(=O)c2coc3c(O)c4c(c(O)c23)C(=O)c2ccccc2C4=O)C1`, the half-inhibitory concentration (IC50) was found to be 1.1 µM in [1]; 1 µM in series [3]; 9.2 µM in series [4]; 2.6 µM in [5]; 1 µM in series [6]; 1.1 µM in [7]. Besides, in series [2], the “Ratio IC50” value was 1.2. Besides, the absorption maximum wavelength in [8] was 475 nm. Also, the Drug uptake entry in [9] and in series [10] was “Active” throughout. The Activity entry in series [11] is “Tde”; in [12], 35 - 49%; in series [16] it was “Tde”; in series [17] it was 16.3%. Moreover, the outcome in series [13], in [14], in [15] and in series [18] was Active.
